The subject of assay [1] is Langerhans cells and dendritic cells. The experiment in a line: In vivo migration-inducing assay in mice (ear application, auricular lymph nodes). Particulars: mouse, 5 μl of 25 mg/ml in DMSO on left ear, 24 hours. On the procedure: The peptide of SEQ ID NO.16 was also tested in vivo in mice in a migration-inducing assay. In order to do this, a population of mice was used in which the EGFP gene is introduced in front of the gene for Langerin, which makes Langerhans cells naturally fluorescent. The gene encoding CCR6 is also disrupted in these mice but normal numbers of Langerhans cells are present in the epidermis. These mice are obtained by crossing two murine strains: the Langerin DTR EGFP line (Kissenpfennig A, et al. in Trends Immunol. 2006 March; 27(3):132-9. Immunity. 2005 May; 22(5):643-54) maintained at the CNRS centre for distribution, typing and archiving at Orleans, France, and subsequently available from the European Mouse Mutant Archive (EMMA, GSF National Research Centre for Environment and Health, Institute of Experimental Genetics, Ingolstädter Landstrasse 1, D-85764 Neuherberg, Munich, Germany, www.emmanet.org) under the identification number EM:01822, and the CCR6 knockout line, published by Cook et al. in Immunity, 2000, 12: 495-503 and by Lukrs et al. in J. Exp. Med., 2001, 194, 551-555.
The peptide of SEQ ID NO.16 is prepared in DMSO at a concentration of 25 mg/ml. […] The number of (naturally fluorescent) Langerhans cells is counted and the total number of dendritic cells identified by labelling with an anti-CD11c antibody.

Assay [2] relates to dendritic cells. The experiment in a line: In vitro assay of dendritic cell migration. Type of assay: cell-based. Particulars: cells incubated 24 hours with the fraction or polypeptide, then migration towards MIP-3β; ESAs at final dilution 1:20; index relative to untreated control.
Procedure: The migration assay involves preliminary incubation of dendritic cells with the polypeptide or fraction to be tested, and 24 hours later the cells are washed and loaded onto the upper part of a migration chamber, the lower part containing the chemokine MIP3-β. The cells that have migrated from the upper compartment to the lower compartment are counted, and migration is quantified by determining the percentage they represent of the number of cells that were initially loaded into the upper chamber. The activity of a polypeptide corresponds to the percentage of cells that have migrated.
After 4 to 6 days of differentiation, the cells obtained are frozen in liquid nitrogen and can be stored for several years.
The dendritic cells are thawed and cultured in RPMI medium with 5% FCS, gentamicin, GM-CSF and TNFα to obtain interstitial dendritic cells. […] The cells are counted 48 hours later and 300,000 cells are placed in each Falcon culture tube in a volume of 300 μl. […] After 24 hours, the tubes are recovered, and the cells are counted and resuspended in the culture medium with 1% bovine serum albumin. • 6. […]
After 24 hours, the inserts are removed and the cells that crossed them and are at the bottom of the wells are recovered and counted. The results are expressed as the percentage of cells relative to the number originally placed in the insert. […]

As to “DTGSGGDDSEGAWGGEQQQVQQHGQSEDR (Amino acids 30-58 of the sequence of GRA5 protein from PRU strain of toxoplasma gondii) [SEQ ID NO.16, fragment corresponding to amino acids 30 to 58 of the GRA5-PRU protein, prepared by peptide synthesis]”, the “number of dendritic cells (CD11c) and Langerhans cells in auricular lymph nodes, treated side vs DMSO side” value in assay [1] is “induces the migration of these cells in vivo”.

Regarding “glutathione S-transferase [GST, reference compound]”, the “migration of dendritic cells (migration-inducing activity, migration index)” value in assay [2] is reported as “no activity”.

For the origin of these results see patent US20100160219A1, “Novel Polypeptides Inducing Dendritic Cell Migration, as Well as Medicines and Pharmaceutical Compositions Containing Same” (priority 2006, published 2010).
